Reference: patent US11123391B2, “Nasal composition” (INQPHARM GROUP SDN BHD, priority 2015, dated 2021)

Test system: HMC1 cells
Assay: In vitro testing of mast cell line HMC-1: histamine release after IgE/anti-IgE, ELISA of supernatant
Type: cell-based
Conditions: calcium ionophore 100 μg/ml, 30 min; for histamine production / release: no IgE/anti-IgE
Method: Mast cell lines, i.e. HMC1 cells (provided by Dr Joseph H. Butterfield; Mayo Clinic, Rochester, Minn., USA), were cultured in Isocove's Modified Dulbecco's Medium (IMDM) containing 10% Fetal Bovine Serum (FBS), 2 mM L-glutamine, 50 μM 2-mercaptoethanol, 100 U/mL penicillin and 100 μg/mL streptomycin. Cells were maintained at 37° C. in 5% CO2 in a humidified atmosphere.
Percentage of living cells was determined by trypan blue staining. A 1:10 dilution with 50 μl cell suspension and 450 μl trypan blue was prepared and the number of living and dead cells was counted in a hemocytometer. 10^6 living cells were transferred into safe-lock Eppendorf tubes. Cell suspensions were centrifuged (200 g, 5 min) and supernatant was discarded.
The effect of perilla oil, sesame oil and a combination of perilla oil and sesame oil (in a combination ratio of 1:1) in the vehicle Kolliphor ELP (polyoxyl-35 hydrogenated castor oil) was determined. The positive control Cromolyn in phosphate buffer saline (PBS), the vehicles PBS and ELP, and calcium ionophore A23187 were also tested as controls.
After adding 100 μl IgE (100 ng/ml in PBS/ELP) to the cell pellets, cells were incubated for 12 hours over night, at 37° C. Cells were than incubated for 2 hours, at 37° C. with different concentrations of compounds. After centrifugation (200 g, 5 min), supernatant was discarded and cell pellet was again incubated for 1 hour, at 37° C. with 100 μl anti-IgE (1 μg/ml in PBS/ELP). For the final incubation time of 6 hours, at 37° C., 300 μl HMC1 media was added. Cells were again centrifuged (200 g, 5 min) and supernatant was collected and stored as 300 μl aliquots at −20° C. for ELISA measurements. Cell pellets were resuspended in 100 μl HMC1 media for determining cell viability.
The procedure was slightly different when the compound testing was calcium ionophore A23187. […]
The concentration of histamine in the collected supernatant was determined by ELISA, using a kit obtained from IBL International according to the manufacturer's guidelines. Each sample was measured twice. […]

SMILES: CNc1ccc2oc(C[C@H]3O[C@@]4(CC[C@H]3C)O[C@H]([C@H](C)C(=O)c3ccc[nH]3)[C@H](C)C[C@H]4C)nc2c1C(=O)O [calcium ionophore, calcium ionophore A23187]
- effect on the cells (cell viability): cells were completely destroyed
- histamine production / release: highest values of histamine production
- histamine production / release (listed as Calcium ionophore): released all histamine
